# Reference: patent US7282595B2, “Antitumor benzoylsulfonamides” (Eli Lilly and Company, priority 2003, dated 2007)
# Test system: Human HCT116 colon carcinoma cells
# Assay: HCT116 Colon Carcinoma Cell Growth Inhibition
# Assay type: cell-based
# Settings: 72 hr exposure, WST-1 growth fraction
# Description: HCT116 Colon Carcinoma Cell Growth Inhibition
# Human HCT116 colon carcinoma cells were grown monolayer culture in RPMI 1640 medium supplemented with 10% fetal bovine serum and 1% penicillin-streptomycin (GibcoBRL, Grand Island, N.Y.). HCT116 cells in exponential growth phase were exposed to various concentrations of the test compounds at 37° C. for 72 hr in 5% carbon dioxide/air. After exposure to the agent, the cells were washed with 0.9% phosphate buffered saline. Growth inhibition was determined using WST-1 cell proliferation reagent as described above. The results are expressed as the growth fraction of treated cells compared with control cultures. Representative compounds of the present invention were tested for efficacy against the human colon HCT116 tumor cells.
row,Molecule,IC50 [µM]
1,"O=C(NS(=O)(=O)c1ccc2c(c1)OCCO2)c1ccc(Cl)cc1Cl [Example 23, N-[2,4-dichlorobenzoyl]-2,3-dihydrobenzo[1,4]dioxane-6-sulfonamide]",4.1
2,"N-[2,4-dichlorobenzoyl]-tetrahydrobenzofuran-5-sulfonamide [Example 24]",40

# Same assay, conditions: Homo sapiens, HCT-116, 72 hr exposure, WST-1 growth fraction
row,Molecule,IC50 [µM]
1,"Cc1cc(Cl)ccc1C(=O)NS(=O)(=O)c1ccc2c(c1)CCO2 [Example 1, N-[4-chloro-2-methylbenzoyl]-2,3-dihydrobenzofuran-5-sulfonamide]",9.6
2,"O=C(NS(=O)(=O)c1ccc2c(c1)OCO2)c1ccc(Cl)cc1Br [Example 2, N-[4-chloro-2-bromobenzoyl]-benzo[1,3]dioxole-5-sulfonamide]",3.9
3,"Cc1cc(Cl)ccc1C(=O)NS(=O)(=O)c1ccc2c(c1)OCO2 [Example 3, N-[4-chloro-2-methylbenzoyl]-benzo[1,3]dioxole-5-sulfonamide]",6.4
4,"Cc1cc(Br)ccc1C(=O)NS(=O)(=O)c1ccc2c(c1)OCO2 [Example 4, N-[4-bromo-2-methylbenzoyl]-benzo[1,3]dioxole-5-sulfonamide]",7.5
5,"Cc1ccc(C(=O)NS(=O)(=O)c2ccc3c(c2)OCO3)c(Br)c1 [Example 5, N-[4-methyl-2-bromobenzoyl]-benzo[1,3]dioxole-5-sulfonamide]",8.5
6,"O=C(NS(=O)(=O)c1ccc2c(c1)OCO2)c1ccc(Br)cc1Br [Example 6, N-[2,4-dibromobenzoyl]-benzo[1,3]dioxole-5-sulfonamide]",4.6
7,"O=C(NS(=O)(=O)c1ccc2c(c1)OCO2)c1ccc(Br)cc1Cl [Example 7, N-[4-bromo-2-chlorobenzoyl]-benzo[1,3]dioxole-5-sulfonamide]",13.9
8,"O=C(NS(=O)(=O)c1cc2ccccc2s1)c1ccc(Cl)cc1Cl [Example 16, N-[2,4-dichlorobenzoyl]-benzo[b]thiophene-2-sulfonamide]",21.8
9,"O=C(NS(=O)(=O)c1cc2ccccc2o1)c1ccc(Cl)cc1Cl [Example 17, N-[2,4-dichlorobenzoyl]-benzofuran-2-sulfonamide]",19.8
10,"O=C(NS(=O)(=O)c1ccc2ncsc2c1)c1ccc(Cl)cc1Cl [Example 18, N-[2,4-dichlorobenzoyl]-benzothiazole-6-sulfonamide]",14.2
11,"O=C(NS(=O)(=O)c1ccc2c(c1)OCO2)c1ccc(Cl)cc1Cl [Example 25, N-[2,4-dichlorobenzoyl]-benzo[1,3]dioxole-5-sulfonamide]",2.1
12,"CN1CCc2ccc(S(=O)(=O)NC(=O)c3ccc(Cl)cc3Cl)cc21 [Example 26, N-[2,4-dichlorobenzoyl]-1-methyl-2,3-dihydro-1H-indole-6-sulfonamide]",10
13,"O=C(NS(=O)(=O)c1ccc2c(c1)CC=C2)c1ccc(Cl)cc1Cl [Example 27, N-[2,4-dichlorobenzoyl]-3H-indene-5-sulfonamide]",3.2
14,"O=C(NS(=O)(=O)c1ccc2c(c1)CCC2)c1ccc(Cl)cc1Cl [Example 28, N-[2,4-dichlorobenzoyl]-indane-5-sulfonamide]",3.2
15,"O=C(NS(=O)(=O)c1ccc2c(c1)CCC2=O)c1ccc(Cl)cc1Cl [Example 29, N-[2,4-dichlorobenzoyl]-1-oxo-indane-5-sulfonamide]",26.2
16,"Cn1c(S(=O)(=O)NC(=O)c2ccc(Cl)cc2Cl)cc2ccccc21 [Example 31, N-[2,4-dichlorobenzoyl]-1-methyl-indole-2-sulfonamide]",4.6
